Measured values: PMC5874719, “A π-Halogen Bond of Dibenzofuranones with the Gatekeeper Phe113 in Human Protein Kinase CK2 Leads to Potent Tight Binding Inhibitors” (Pharmaceuticals, 2018)

Tests used:
Assay type in all cases: biochemical
CK2α = target: T1, CK2α (Homo sapiens, UniProt P68400); test: kinase selectivity profile (Reaction Biology Corp.); settings: 10 µM inhibitor, 10 µM ATP, relative to control without inhibitor; read-out: residual activity
T1 construct: purchased Reaction Biology Corp
Description: (§1) This demands further investigation.

CK2α’ = target: T2, CK2α’ (Homo sapiens, UniProt P19784); test: as above; settings: 10 µM inhibitor, 10 µM ATP, relative to control without inhibitor; read-out: residual activity
T2 construct: purchased Reaction Biology Corp
Description: as §1

Aurora A = target: T3, Aurora A (Homo sapiens, UniProt O14965); test: kinase selectivity profile; settings: 10 µM inhibitor, 10 µM ATP
T3 construct: purchased Reaction Biology Corp
T3 sequence (O14965 1-403): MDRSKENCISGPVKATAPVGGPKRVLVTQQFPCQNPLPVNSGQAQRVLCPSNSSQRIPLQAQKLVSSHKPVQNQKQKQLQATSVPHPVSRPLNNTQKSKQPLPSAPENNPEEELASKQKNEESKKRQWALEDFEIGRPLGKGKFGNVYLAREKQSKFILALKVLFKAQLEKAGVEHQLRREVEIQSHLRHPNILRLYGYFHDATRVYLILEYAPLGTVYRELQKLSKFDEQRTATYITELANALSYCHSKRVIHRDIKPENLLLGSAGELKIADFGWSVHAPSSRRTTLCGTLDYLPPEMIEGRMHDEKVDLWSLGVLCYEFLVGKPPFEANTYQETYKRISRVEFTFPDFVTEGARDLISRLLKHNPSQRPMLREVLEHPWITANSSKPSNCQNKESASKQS
Description: as §1

CAMKK2 = target: T4, CAMKK2 (Homo sapiens, UniProt Q96RR4); test: kinase selectivity profile; settings: 10 µM inhibitor, 10 µM ATP
T4 construct: purchased Reaction Biology Corp
Description: as §1

FLT3 (D835Y) = target: T5, FLT3 (D835Y) (Homo sapiens, UniProt P36888, D835Y); test: kinase selectivity profile; settings: 10 µM inhibitor, 10 µM ATP
T5 construct: purchased Reaction Biology Corp
Description: as §1

FLT3 = target: T6, FLT3 (Homo sapiens, UniProt P36888); test: kinase selectivity profile; settings: 10 µM inhibitor, 10 µM ATP
T6 construct: purchased Reaction Biology Corp
Description: as §1

[1] = system: panel of 61 human protein kinases; test: kinase selectivity profile, whole panel; settings: 10 µM inhibitor, 10 µM ATP
Description: as §1

[2] = target: T7, surface displayed CK2α + CK2β (CK2α containing human CK2 holoenzyme) (Homo sapiens, UniProt P68400); test: whole-cell CK2 selectivity assay, holoenzyme surface displayed on E. coli; settings: 600 µM ATP, 100 µM substrate peptide
T7 construct: surface-display (autodisplay) carrier protein; made in house; host or cells: Escherichia coli BL21 (DE3), enzyme left on the cell surface
Description: We recently reported a whole cell CK2 activity assay, which can be used for testing the selectivity of compounds towards CK2α and CK2α’ [47]. It is based on the surface display of the human CK2 subunits, either α or α’ together with β on E. coli, were they are able to form a functional tetrameric holoenzymes, either ααββ or α’α’ββ, depending on which α isoform has been expressed. This technique was used to investigate whether 4a or 5 have preference to one of the two catalytic isoforms of CK2.
For this purpose, their IC50 were determined following the protocol of the recently described whole-cell CK2 selectivity assay. In summary, 78 µL of a bacterial suspension of Escherichia coli BL21 (DE3) either surface displaying CK2α + CK2β or CK2α’ + CK2β in kinase buffer (50 mM Tris/HCl, pH 8.5, 100 mM NaCl, 10 mM MgCl2 and 1 mM DTT) were supplemented with 2 µL of the test compound dissolved in DMSO and incubated at 37 °C and 400 rpm for 10 min. CK2 reactions were started by the addition of 120 µL of assay buffer (25 mM Tris/HCl, pH 7.5, 150 mM NaCl, 5 mM MgCl2, 1 mM DTT, 167 µM substrate peptide […] and 1 mM ATP) leading to a total reaction volume of 200 µL with final concentrations of 100 µM for the substrate peptide and 600 µM for ATP. […] After the samples were incubated for 120 min at 37 °C and 400 rpm, the CK2 presenting bacteria were removed by centrifugation (3850× g, 5 min, 4 °C). The obtained supernatants were transferred to the wells of a 96 well-microplate and finally supplemented with EDTA to a concentration of 12.5 mM to definitely stop the enzymatic reactions. The samples were then subjected to a Beckman Coulter pa800 plus (Krefeld, Germany) CE system and analyzed for phosphorylation of the substrate peptide. Samples containing pure DMSO served as controls for 0% inhibition and samples additionally lacking ATP served as controls for 100% inhibition. […] IC50 values were calculated from the resulting dose-response curves.
CK2α’ + CK2β (right column).
Mean values ± standard errors of
the means (SEM) are shown. […]

T7 sequence (P68400 whole entry): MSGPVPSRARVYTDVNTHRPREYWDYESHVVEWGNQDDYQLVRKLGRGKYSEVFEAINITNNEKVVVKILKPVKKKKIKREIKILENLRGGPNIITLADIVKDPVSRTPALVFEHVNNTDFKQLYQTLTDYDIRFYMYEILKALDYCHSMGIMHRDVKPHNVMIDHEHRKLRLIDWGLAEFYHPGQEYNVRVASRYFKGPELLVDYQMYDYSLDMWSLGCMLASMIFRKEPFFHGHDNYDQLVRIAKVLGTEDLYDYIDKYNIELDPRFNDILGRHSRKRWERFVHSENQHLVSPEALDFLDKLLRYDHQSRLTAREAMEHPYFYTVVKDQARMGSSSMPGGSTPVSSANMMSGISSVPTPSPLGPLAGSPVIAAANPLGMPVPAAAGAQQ
T7 sequence (P67870 whole entry partner): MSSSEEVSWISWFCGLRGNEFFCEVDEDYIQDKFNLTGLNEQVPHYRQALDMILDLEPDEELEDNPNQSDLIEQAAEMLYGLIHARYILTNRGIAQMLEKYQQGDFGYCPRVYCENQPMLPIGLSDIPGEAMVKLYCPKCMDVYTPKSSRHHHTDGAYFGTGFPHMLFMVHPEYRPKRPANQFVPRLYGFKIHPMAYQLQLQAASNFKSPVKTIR
T4 sequence (Q96RR4 whole entry): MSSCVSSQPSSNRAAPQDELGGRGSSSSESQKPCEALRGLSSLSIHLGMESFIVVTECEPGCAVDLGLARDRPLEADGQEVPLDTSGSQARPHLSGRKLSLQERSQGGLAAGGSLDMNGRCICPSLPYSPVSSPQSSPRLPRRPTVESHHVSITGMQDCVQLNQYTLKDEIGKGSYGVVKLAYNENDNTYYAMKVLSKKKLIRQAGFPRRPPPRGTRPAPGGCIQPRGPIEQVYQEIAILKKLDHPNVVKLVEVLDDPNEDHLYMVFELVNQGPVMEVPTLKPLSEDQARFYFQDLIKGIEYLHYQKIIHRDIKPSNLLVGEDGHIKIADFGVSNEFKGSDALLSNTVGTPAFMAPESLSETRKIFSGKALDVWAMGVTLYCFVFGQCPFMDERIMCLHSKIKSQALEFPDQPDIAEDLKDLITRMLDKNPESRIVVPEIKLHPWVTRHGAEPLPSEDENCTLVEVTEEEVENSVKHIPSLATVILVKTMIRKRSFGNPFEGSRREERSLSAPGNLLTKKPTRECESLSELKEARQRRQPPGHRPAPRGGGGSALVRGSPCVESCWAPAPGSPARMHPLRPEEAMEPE
T1 sequence (P68400 whole entry): as the sequence (P68400 whole entry) above
T2 sequence (P19784 whole entry): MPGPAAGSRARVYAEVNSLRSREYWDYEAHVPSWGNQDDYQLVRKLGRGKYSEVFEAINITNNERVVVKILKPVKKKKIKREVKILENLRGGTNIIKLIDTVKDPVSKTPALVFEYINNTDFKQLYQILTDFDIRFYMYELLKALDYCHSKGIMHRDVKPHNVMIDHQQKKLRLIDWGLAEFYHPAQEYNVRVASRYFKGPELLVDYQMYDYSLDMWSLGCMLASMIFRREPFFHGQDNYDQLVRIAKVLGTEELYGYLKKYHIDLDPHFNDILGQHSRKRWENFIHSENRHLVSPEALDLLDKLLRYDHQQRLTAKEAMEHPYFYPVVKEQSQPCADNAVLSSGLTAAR

Compound	remaining activity at 10 µM (CK2α)	remaining activity at 10 µM (CK2α’)	kinase inhibited more than 70% at 10 µM concentration (Aurora A)	kinase inhibited more than 70% at 10 µM concentration (CAMKK2)	kinase inhibited more than 70% at 10 µM concentration (FLT3 (D835Y))	kinase inhibited more than 70% at 10 µM concentration (FLT3)	number of kinases out of the 61 kinases inhibited to more than 70% [1]	IC50 [2]
COc1ccc(N/C=C2\C(=O)CCc3c2oc2cc(Cl)c(O)c(Cl)c32)cc1 [4a, 7,9-dichloro-1,2-dihydro-8-hydroxy-4-[(4-methoxyphenylamino)methylene]dibenzo[b,d]furan-3(2H)-one]	< 2%	< 1%	Aurora A	CAMKK2	FLT3 (D835Y)	FLT3	6	62 nM
Cc1ccc(NC=C2C(=O)CCc3c2oc2c(Cl)c(Cl)c(O)cc32)cc1 [4b, 6,7-dichloro-1,4-dihydro-8-hydroxy-4-[(4-methylphenylamino)methylene]dibenzo[b,d]furan-3(2H)-one]								877 nM
COc1ccc(/N=C/c2c(O)ccc3c2oc2cc(Cl)c(O)c(Cl)c23)cc1 [compound 5, (E)-1,3-dichloro-6-[(4-methoxyphenylimino)methyl]dibenzo[b,d]furan-2,7-diol]	< 2%	< 1%	Aurora A	CAMKK2	FLT3 (D835Y)	FLT3	11	98 nM
